Source: US11254667B2 (priority 2016, dated 2022)
Converted amounts (≈) assume the structure as drawn. Read-outs that look alike come from different tables or passages of the source.

Experiments:
[1] = PAMPA
[2] = pH 7.4
RET = RET (Homo sapiens (Human), UniProt P07949); experiment: biochemical; details: 10 μM ATP
[3] = target: Receptor-type tyrosine-protein kinase FLT3 (Homo sapiens, UniProt P36888, ITD); experiment: biochemical
FLT3 = FLT3 (Homo sapiens (Human), UniProt P36888); experiment: biochemical
SRPK1 = SRPK1 (Homo sapiens (Human), UniProt Q96SB4); experiment: biochemical
physchem = details: pH 7.4, aqueous buffer, kinetic from dmso stock
Phospho (P)-STAT5 = experiment: P-STAT5 AlphaLISA assay in MV4;11 cells; format: cell-based; details: Homo sapiens, read-out: IC50 of STAT5 phosphorylation
LCK = LCK (Homo sapiens (Human), UniProt P06239); experiment: biochemical; details: 10-dose IC50 mode, 10 μM ATP
MA9-NRas cells = experiment: NRAS IC50 (MA9-NRas cells); format: cell-based; details: Homo sapiens, read-out: NRAS IC50
FLT3 phosphorylation = experiment: Immunoblot of P-FLT3 in MV4;11 cells; format: cell-based, human; details: 50 nM, 24 hours
P-IRAK4 = experiment: Immunoblot of compensatory P-IRAK4 in FLT3-ITD AML cells; format: cell-based, human; details: 50 nM
PDGFRβ = PDGFRβ (Homo sapiens (Human), UniProt P09619); experiment: biochemical; details: 10 μM ATP
PDGFRβ, sequence (P09619 33-1106 limits assumed): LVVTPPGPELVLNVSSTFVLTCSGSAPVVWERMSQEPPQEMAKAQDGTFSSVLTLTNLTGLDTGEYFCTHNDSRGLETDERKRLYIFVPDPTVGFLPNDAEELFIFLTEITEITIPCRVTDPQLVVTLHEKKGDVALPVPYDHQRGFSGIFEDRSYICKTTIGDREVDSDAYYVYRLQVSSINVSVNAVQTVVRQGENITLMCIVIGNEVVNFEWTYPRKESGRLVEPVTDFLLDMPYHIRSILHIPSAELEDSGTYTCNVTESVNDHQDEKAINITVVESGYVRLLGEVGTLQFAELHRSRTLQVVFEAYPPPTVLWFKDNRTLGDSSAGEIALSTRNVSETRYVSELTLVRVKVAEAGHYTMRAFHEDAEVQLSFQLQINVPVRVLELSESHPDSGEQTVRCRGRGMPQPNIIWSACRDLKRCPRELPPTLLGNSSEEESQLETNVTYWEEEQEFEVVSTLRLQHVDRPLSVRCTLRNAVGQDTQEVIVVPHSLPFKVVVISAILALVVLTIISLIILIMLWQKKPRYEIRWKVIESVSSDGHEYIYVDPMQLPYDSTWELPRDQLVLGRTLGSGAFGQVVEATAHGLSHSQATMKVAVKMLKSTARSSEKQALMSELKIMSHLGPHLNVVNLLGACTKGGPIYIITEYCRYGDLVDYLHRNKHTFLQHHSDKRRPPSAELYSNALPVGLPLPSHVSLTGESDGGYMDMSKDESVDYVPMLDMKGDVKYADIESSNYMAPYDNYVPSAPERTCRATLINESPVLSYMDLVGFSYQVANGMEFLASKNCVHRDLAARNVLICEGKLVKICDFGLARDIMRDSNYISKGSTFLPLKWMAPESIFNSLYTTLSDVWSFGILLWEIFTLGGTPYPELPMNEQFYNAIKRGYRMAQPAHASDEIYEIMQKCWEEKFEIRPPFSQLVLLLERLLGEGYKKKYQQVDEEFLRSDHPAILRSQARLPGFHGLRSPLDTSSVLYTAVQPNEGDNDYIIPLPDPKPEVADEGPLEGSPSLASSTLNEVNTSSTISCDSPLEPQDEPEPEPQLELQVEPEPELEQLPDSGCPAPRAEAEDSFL

IRAK4 = IRAK4 (Homo sapiens (Human), UniProt Q9NWZ3); experiment: biochemical
CDK7/cyclin H = CDK7/cyclin H (Homo sapiens (Human), UniProt P50613); experiment: biochemical
IRAK1 [4] = target: T1, IRAK1 (Homo sapiens (Human), UniProt P51617); experiment: biochemical
BLK = BLK (Homo sapiens (Human), UniProt P51451); experiment: biochemical; details: 10 μM ATP
FLT3 (D835Y) = FLT3 (D835Y) (Homo sapiens (Human), UniProt P36888, D835Y); experiment: biochemical
in vivo = details: NRG/NRGS, mouse, ip, 30 mg/kg
IRAK1 [5] = target: T1, IRAK1; experiment: Kd kinase binding assay IRAK1
[6] = NRG/NRGS, mouse, in vivo, ip, 30 mg/kg
MDSL cells = experiment: CellTiter-Glo growth of MDSL cells; format: cell-based, human; details: 72 hours, cell-titer glow
[7] = tested on: normal cord blood CD34+ cells; experiment: Colony formation of normal cord blood CD34+ cells; details: 1 μM, 10 days
IRAK4 phosphorylation = experiment: Immunoblot of P-IRAK4 in MDSL cells; format: cell-based, human; details: 24 hours
[8] = MV4;11 cells, 5 hours, AlphaLISA

RET, sequence (P07949 29-1114 limits assumed): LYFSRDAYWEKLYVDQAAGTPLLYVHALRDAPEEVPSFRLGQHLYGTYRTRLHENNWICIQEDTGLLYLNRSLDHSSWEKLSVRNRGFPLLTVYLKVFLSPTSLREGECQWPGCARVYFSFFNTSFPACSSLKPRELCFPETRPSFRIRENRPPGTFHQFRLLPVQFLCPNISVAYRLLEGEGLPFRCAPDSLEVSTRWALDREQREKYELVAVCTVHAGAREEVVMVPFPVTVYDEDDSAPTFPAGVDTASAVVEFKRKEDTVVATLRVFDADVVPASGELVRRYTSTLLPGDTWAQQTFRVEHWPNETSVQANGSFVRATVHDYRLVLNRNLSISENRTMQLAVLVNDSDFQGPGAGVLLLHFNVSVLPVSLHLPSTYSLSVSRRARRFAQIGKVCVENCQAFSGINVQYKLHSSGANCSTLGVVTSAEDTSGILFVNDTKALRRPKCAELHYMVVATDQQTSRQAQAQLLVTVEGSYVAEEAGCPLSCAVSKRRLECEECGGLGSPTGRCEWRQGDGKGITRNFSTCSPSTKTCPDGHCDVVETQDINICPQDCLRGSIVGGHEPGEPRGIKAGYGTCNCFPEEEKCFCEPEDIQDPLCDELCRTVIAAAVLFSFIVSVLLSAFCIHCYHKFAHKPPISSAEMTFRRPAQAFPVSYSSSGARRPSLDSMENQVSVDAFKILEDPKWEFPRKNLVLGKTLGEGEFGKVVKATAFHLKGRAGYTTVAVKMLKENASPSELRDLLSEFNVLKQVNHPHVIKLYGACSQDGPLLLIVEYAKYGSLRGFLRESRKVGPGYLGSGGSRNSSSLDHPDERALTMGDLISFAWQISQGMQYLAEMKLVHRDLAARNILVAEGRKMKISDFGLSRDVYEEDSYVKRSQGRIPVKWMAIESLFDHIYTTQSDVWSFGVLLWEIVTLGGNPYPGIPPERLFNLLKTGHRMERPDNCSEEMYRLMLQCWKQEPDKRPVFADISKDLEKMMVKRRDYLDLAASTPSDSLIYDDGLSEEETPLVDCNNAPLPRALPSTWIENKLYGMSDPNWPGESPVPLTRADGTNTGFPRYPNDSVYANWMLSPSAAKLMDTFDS

## Fc1cc(F)c(-c2cnc3ccc(Cl)cn23)nc1NC1CNC1 [Compound I-56, N-(azetidin-3-yl)-6-(6-chloroimidazo[1,2-a]pyridin-3-yl)-3,5-difluoropyridin-2-amine]
[1]
  Permeability: 1164.1 ×10⁻⁶ cm/s
[2]
  solubility: >50.0 µg/mL

## COc1cc2ncc(-c3cccc(NC4CCNC4)n3)n2cc1-c1cn[nH]c1 (stereo not drawn) [Compound I-20, 6-(7-methoxy-6-(1H-pyrazol-4-yl)imidazo[1,2-a]pyridin-3-yl)-N-(pyrrolidin-3-yl)pyridin-2-amine]
RET; IC50 RET, 10-dose IC50 mode
  IC50: < 0.508 nM
[3]
  IC50: < 0.508 nM
FLT3
  IC50: < 0.508 nM
SRPK1
  IC50: > 10000 nM
physchem
  solubility: 4.5 µg/mL (≈ 12 µM)
Phospho (P)-STAT5; MV4-11, 5 h
  IC50: 3.6 nM
rat
  Stability: 11.6 min
LCK
  IC50: < 0.508 nM
MA9-NRas cells
  IC50: 33200 nM
FLT3 phosphorylation
  FLT3 phosphorylation (immunoblot): inhibited FLT3 phosphorylation comparably to AC220
P-IRAK4
  compensatory phosphorylation of IRAK4 (immunoblot): did not result in compensatory phosphorylation of IRAK4
PDGFRβ; IC50 PDGFRb, 10-dose IC50 mode
  IC50: 1.25 nM
IRAK4
  IC50: < 0.508 nM
CDK7/cyclin H
  IC50: 116 nM
IRAK1 [4]; IC50 IRAK1, 10-dose IC50 mode, 10 μM ATP
  IC50: 5.34 nM
BLK; IC50 BLK, 10-dose IC50 mode
  IC50: < 0.508 nM
FLT3 (D835Y)
  IC50: < 0.508 nM

## Clc1ccc2ncc(-c3cccc(NC4CCNCC4)n3)n2c1 [Compound I-2, 6-(6-chloroimidazo[1,2-a]pyridin-3-yl)-N-(piperidin-4-yl)pyridin-2-amine]
RET; IC50 RET
  IC50: 0.6 nM
RET; IC50 RET, 10-dose IC50 mode
  IC50: 1280 nM
SRPK1
  IC50: > 10000 nM
physchem
  solubility: > 48 µg/mL
  solubility kinetic: > 48 µM
rat
  Stability: […]
In vivo
  AUC(0-inf): 4630 ng·h/mL
  Cmax: 1710 ng/mL
  half-life: 198 min
PDGFRβ; IC50 PDGFRb, 10-dose IC50 mode
  IC50: 3.57 nM
PDGFRβ; IC50 PDGFRβ
  IC50: 4.19 nM
BLK; IC50 BLK
  IC50: […]
BLK; IC50 BLK, 10-dose IC50 mode
  IC50: […]

## Clc1ccc2ncc(-c3cccc(NC4CCCNC4)n3)n2c1 (stereo not drawn) [Compound I-17, 6-(6-chloroimidazo[1,2-a]pyridin-3-yl)-N-(piperidin-3-yl)pyridin-2-amine]
RET; IC50 RET, 10-dose IC50 mode
  IC50: 10.5 nM
SRPK1
  IC50: 7670 nM
IRAK1 [5]
  Kd: 150 nM
physchem
  solubility: > 48 µg/mL
rat
  Stability: >30.0 min
LCK
  IC50: 167 nM
PDGFRβ; IC50 PDGFRb, 10-dose IC50 mode
  IC50: 67 nM
CDK7/cyclin H
  IC50: 588 nM
IRAK1 [4]; read-out: IC50 IRAK1
  IC50: 1480 nM
BLK; IC50 BLK, 10-dose IC50 mode
  IC50: 40.7 nM

## CC(C)(C)c1cc(NC(=O)Nc2ccc(-c3cn4c(n3)sc3cc(OCCN5CCOCC5)ccc34)cc2)no1 [quizartinib, reference compound]
Phospho (P)-STAT5; MV4-11, 5 h
  IC50: 11.7 nM

## Clc1ccc2ncc(-c3cccc(NC4CNC4)n3)n2c1 [Compound I-15, N-(azetidin-3-yl)-6-(6-chloroimidazo[1,2-a]pyridin-3-yl)pyridin-2-amine]
physchem
  solubility: > 44 µg/mL
Phospho (P)-STAT5; [8]
  IC50: 1.7 nM
other
  Stability: 13 min
MA9-NRas cells
  IC50: 16600 nM

## CC1(COc2ccc3c(c2)ncn3-c2ccc3cccc(N4CCC(N)CC4)c3n2)COC1 [Crenolinib, reference compound]
RET; 10-dose IC50 mode, read-out: IC50 RET
  IC50: 13.8 nM
SRPK1; 10-dose IC50 mode, 10 μM ATP, read-out: IC50 SRPK1
  IC50: 21700 nM
BLK; 10-dose IC50 mode, read-out: IC50 BLK
  IC50: 20.7 nM

## COc1cc2ncc(-c3cccc(NC4CCNC4)n3)n2cc1-c1cnn(C)c1 (stereo not drawn) [Compound I-24, 6-(7-methoxy-6-(1-methyl-1H-pyrazol-4-yl)imidazo[1,2-a]pyridin-3-yl)-N-(pyrrolidin-3-yl)pyridin-2-amine]
IRAK1 [5]
  Kd: 2.9 nM
In vivo
  AUC(0-inf): 6800 ng·h/mL
  Cmax: 3570 ng/mL
  Tmax: 4.98 min
FLT3 phosphorylation
  FLT3 phosphorylation (immunoblot): inhibited FLT3 phosphorylation comparably to AC220
[6]
  AUCinf.: 6,800 hr*ng/mL
MDSL cells
  MDSL growth inhibition compared to IRAK-Inh: increased ability to inhibit MDSL growth
[7]
  colony formation of normal CD34+ cells: inhibited colony formation
IRAK4 phosphorylation
  IRAK4 phosphorylation (immunoblot): effectively inhibited pIRAK4

## c1cc(N[C@@H]2CCNC2)nc(-c2cnc3ccc(-c4cn[nH]c4)cn23)c1 [Compound I-43]
physchem
  solubility: 40.1 µg/mL (≈ 116 µM)
Phospho (P)-STAT5; [8]
  IC50: 6.6 nM
other
  Stability: 5.7 min
